Test results as given in patent US7205298B2, “Substituted triazine kinase inhibitors” (Janssen Pharmaceutica N.V., priority 2002, dated 2007).

Key:
Type in all cases: biochemical
[1] = target: T1, PDGF-R (beta subunit kinase domain) (Homo sapiens, UniProt P09619); experiment: Kinase selectivity assay PDGF-R
T1 construct: nucleotides 1874–3507 of the human PDGF-R beta subunit kinase domain; polyhistidine (N)
Description: (§1) Assays to test compound inhibition of other kinases were preformed using methods that measure the amount of phosphorylation of a biotinylated peptide substrate. Biotinylated peptide substrates were selected from the literature as appropriate for the enzyme being evaluated. […] Assay conditions vary slightly for each protein kinase, for example, insulin receptor kinase requires 10 mM MnCl2 for activity and Calmodulin-dependent protein kinase requires calmodulin and 2 mM CaCl2. The reaction mixture was dispensed into the wells of a streptavidin coated Flashplate and 1 μL test compound in 100% DMSO was added to a 100 μL reaction volume resulting in a final concentration of 1% DMSO in the reaction. Enzyme was diluted in 50 mM Tris-HCl pH=8.0, 0.1% BSA and added to each well. The reaction was incubated for one hour at 30° C. in the presence of a test compound. After one hour the reaction mix was aspirated from the plate and the plate was washed with PBS containing 100 mM EDTA. The plate was read on a scintillation counter to determine ^33P-γ-ATP incorporated into the immobilized peptide substrate. Test compounds were assayed in duplicate at 8 concentrations (100 μM, 10 μM, 1 μM, 100 nM, 10 nM, 1 nM, 100 pM, 10 pM). A maximum and minimum signal for the assay was determined on each plate. […] Known inhibitor compounds appropriate for the kinase being assayed were also included on each plate. […]

[2] = target: T2, PKC γ (Homo sapiens, UniProt P05129); experiment: Kinase selectivity assay PKC γ
T2 construct: purchased BIOMOL SE-143; host or cells: insect cells
Description: (§2) Assays to test compound inhibition of other kinases were preformed using methods that measure the amount of phosphorylation of a biotinylated peptide substrate. Biotinylated peptide substrates were selected from the literature as appropriate for the enzyme being evaluated. The general procedure used to assay for kinase activity is as follows: a kinase reaction mix was prepared in 50 mM Tris-HCl pH=8, 10 mM MgCl2, 0.1 mM Na3VO4, 1 mM DTT, 10 μM ATP, 0.25–1 μM biotinylated peptide substrate, 0.2–0.8 μCuries per well ^33P-γ-ATP (2000–3000 Ci/mmol). Assay conditions vary slightly for each protein kinase, for example, insulin receptor kinase requires 10 mM MnCl2 for activity and Calmodulin-dependent protein kinase requires calmodulin and 2 mM CaCl2. The reaction mixture was dispensed into the wells of a streptavidin coated Flashplate and 1 μL test compound in 100% DMSO was added to a 100 μL reaction volume resulting in a final concentration of 1% DMSO in the reaction. Enzyme was diluted in 50 mM Tris-HCl pH=8.0, 0.1% BSA and added to each well. The reaction was incubated for one hour at 30° C. in the presence of a test compound. […] The plate was read on a scintillation counter to determine ^33P-γ-ATP incorporated into the immobilized peptide substrate. […] A maximum and minimum signal for the assay was determined on each plate. […]

[3] = target: CDK4 (Homo sapiens, UniProt P11802); experiment: Kinase selectivity assay CDK4
Description: as §2

[4] = target: T3, EGF-R1 (Homo sapiens, UniProt P00533); experiment: Kinase selectivity assay EGF-R1
T3 construct: purified from human A431 cell membranes; purchased Sigma E3641; host or cells: human A431 cell membranes (endogenous protein)
Description: as §1

T3 sequence (P00533 25-1210): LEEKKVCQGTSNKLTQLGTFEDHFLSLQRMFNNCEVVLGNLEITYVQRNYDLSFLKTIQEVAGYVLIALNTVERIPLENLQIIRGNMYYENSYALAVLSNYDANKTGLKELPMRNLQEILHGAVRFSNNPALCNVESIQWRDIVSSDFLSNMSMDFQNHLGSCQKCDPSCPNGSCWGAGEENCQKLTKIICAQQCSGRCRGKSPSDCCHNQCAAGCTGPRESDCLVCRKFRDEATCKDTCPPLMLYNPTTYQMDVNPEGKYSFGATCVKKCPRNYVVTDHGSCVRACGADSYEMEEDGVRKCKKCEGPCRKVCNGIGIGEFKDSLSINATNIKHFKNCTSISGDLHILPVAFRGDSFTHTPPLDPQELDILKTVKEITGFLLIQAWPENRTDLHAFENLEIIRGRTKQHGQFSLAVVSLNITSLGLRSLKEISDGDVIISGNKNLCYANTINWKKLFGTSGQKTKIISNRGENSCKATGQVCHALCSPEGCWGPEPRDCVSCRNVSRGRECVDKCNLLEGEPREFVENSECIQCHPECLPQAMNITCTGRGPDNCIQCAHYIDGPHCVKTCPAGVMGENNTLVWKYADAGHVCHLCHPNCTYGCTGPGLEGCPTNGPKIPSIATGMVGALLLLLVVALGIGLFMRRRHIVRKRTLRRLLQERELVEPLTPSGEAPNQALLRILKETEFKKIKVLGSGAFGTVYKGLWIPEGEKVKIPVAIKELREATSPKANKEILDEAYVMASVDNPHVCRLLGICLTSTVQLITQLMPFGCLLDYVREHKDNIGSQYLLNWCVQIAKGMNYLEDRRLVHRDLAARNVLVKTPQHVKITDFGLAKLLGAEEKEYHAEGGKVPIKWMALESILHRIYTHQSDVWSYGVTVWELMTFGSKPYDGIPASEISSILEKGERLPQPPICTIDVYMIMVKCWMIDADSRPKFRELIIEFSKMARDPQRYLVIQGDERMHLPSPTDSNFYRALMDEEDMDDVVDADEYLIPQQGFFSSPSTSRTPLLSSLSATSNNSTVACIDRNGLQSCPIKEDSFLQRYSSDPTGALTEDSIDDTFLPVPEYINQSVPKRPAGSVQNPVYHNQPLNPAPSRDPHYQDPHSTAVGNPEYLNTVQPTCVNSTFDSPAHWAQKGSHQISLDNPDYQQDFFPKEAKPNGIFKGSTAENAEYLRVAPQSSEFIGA
T1 sequence (P09619 554-1106 limits assumed): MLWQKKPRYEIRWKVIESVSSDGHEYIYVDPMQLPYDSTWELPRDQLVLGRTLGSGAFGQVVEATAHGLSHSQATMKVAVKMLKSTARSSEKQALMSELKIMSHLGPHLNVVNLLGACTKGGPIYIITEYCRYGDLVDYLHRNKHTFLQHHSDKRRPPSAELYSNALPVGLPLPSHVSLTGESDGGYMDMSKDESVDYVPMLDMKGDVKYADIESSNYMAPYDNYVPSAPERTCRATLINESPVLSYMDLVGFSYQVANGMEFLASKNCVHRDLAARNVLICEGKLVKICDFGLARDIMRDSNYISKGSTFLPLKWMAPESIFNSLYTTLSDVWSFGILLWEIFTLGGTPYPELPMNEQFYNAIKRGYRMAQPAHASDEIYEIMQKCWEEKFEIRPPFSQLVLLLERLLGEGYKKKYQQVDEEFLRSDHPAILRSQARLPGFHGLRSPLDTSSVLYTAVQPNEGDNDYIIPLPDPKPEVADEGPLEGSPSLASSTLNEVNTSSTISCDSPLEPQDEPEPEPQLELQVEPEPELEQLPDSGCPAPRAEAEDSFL
Sequence of CDK4 (P11802 whole entry, species assumed): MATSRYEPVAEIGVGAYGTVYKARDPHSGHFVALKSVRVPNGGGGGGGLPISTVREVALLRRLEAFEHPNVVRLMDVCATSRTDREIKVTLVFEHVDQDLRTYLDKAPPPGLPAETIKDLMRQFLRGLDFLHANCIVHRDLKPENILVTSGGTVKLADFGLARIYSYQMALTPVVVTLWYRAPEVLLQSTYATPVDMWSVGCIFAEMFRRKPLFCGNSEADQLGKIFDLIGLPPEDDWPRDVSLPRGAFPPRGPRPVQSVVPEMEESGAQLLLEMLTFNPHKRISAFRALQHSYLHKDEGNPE
Sequence of CDK4 (P24385 whole entry partner, species assumed): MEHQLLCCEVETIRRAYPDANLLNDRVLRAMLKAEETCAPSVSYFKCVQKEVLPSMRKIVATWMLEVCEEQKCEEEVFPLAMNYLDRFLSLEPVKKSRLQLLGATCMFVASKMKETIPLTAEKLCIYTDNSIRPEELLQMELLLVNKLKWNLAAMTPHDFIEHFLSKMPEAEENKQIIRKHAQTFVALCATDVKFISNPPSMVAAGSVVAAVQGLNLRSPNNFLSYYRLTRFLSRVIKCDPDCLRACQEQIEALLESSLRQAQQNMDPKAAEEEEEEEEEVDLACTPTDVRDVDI

SMILES: OCCCNc1cncc(-c2ncnc(Nc3cccc(Cl)c3)n2)c1 [Compound 1, 3-((5-(4-((3-chlorophenyl)amino)-1,3,5-triazin-2-yl)-3-pyridinyl)amino)-1-propanol]
- IC50 [1]: 1180 nM
- IC50 [2]: > 100000 nM
- IC50 [3]: 1350 nM
- IC50 [4]: > 100000 nM
